The source of these data is the NIST ThermoML archive (doi:10.1016/j.jct.2003.09.011).

A short description of this series: activity coefficient (dimensionless); of the first substance listed, at infinite dilution; xn = mol fraction of the nth substance listed. Conditions: Liquid, Chromatography, x1 = 0.

Numbers after ± are expanded uncertainties.

In the case of `CCCCCCC` [heptane] + O=Cc1ccco1, the activity coefficient by setting is: (278.15 K) 38.1 ± 3.3; (298.15 K) 33.4 ± 2.9.

With `C1CCCC1` [cyclopentane] + O=Cc1ccco1, the activity coefficient runs as follows: (278.15 K) 14.2 ± 1.2; (298.15 K) 13.3 ± 1.2.

As for `C1CCCCCC1` [cycloheptane] + O=Cc1ccco1, the activity coefficient (278.15 K) came out at 18.6 ± 1.6 and the activity coefficient (298.15 K) worked out at 15.5 ± 1.3.

As to `C=CCCCC` [hex-1-ene] + O=Cc1ccco1, the activity coefficient is, setting by setting: (278.15 K) 15.2 ± 1.3; (298.15 K) 15 ± 1.3.

Take `CCCCC` [pentane] + O=Cc1ccco1: the activity coefficient reads like this: (278.15 K) 24.3 ± 2.1; (298.15 K) 21.6 ± 1.9.

On to `C#CCCCCC` [1-heptyne] + O=Cc1ccco1, for which the activity coefficient is 20 ± 1.7 (278.15 K) and 17.9 ± 1.5 (298.15 K).

As to `C#CCCCC` [1-hexyne] + O=Cc1ccco1, the activity coefficient reads like this: (278.15 K) 6.27 ± 0.54; (298.15 K) 5.09 ± 0.44.

Take `CCCCCC` [hexane] + O=Cc1ccco1: the activity coefficient amounted to 31.9 ± 2.8 (278.15 K) and 27.8 ± 2.4 (298.15 K).

Regarding `c1ccccc1` [benzene] + O=Cc1ccco1, the activity coefficient is 2.55 ± 0.22 (278.15 K) and 2.45 ± 0.21 (298.15 K).

Consider `C1CCCCC1` [cyclohexane] + O=Cc1ccco1, for which the activity coefficient runs as follows: (278.15 K) 16.8 ± 1.5; (298.15 K) 13.6 ± 1.2.
